In brackets after ≈: the same amount, converted by molar mass.
Key:
Test in all cases: antibacterial activity, MIC by standard serial dilution method
Assay type in all cases: cell-based
[1] = system: Citrobacter freundii GN346/16
Source text: (§1) Antibacterial activity of Compounds Nos. 1, 3, 5, 7, 9, 11, 13, 15, 17, 19, 21, 23, 25, 27, 29, 31, 33, 35 and 37 indentified hereinbefore which are the particular examples of the new cephalosporin derivative of general formula (I) according to this invention and which are in the form of the free carboxylic acid was estimated by determining the minimum inhibitory concentrations (MIC., μg/ml) of these compounds against a variety of bacteria according to a standard serial dilution method.

[2] = system: Citrobacter freundii GN346
Source text: as §1

[3] = system: Enterobacter cloacae G-0008; conditions: G0008
Source text: as §1

[4] = system: Enterobacter cloacae GN7471
Source text: as §1

[5] = system: Enterobacter hirae ATCC8043
Source text: as §1

[6] = system: Entrobacter faecalis W-73
Source text: as §1

Escherichia coli 255/S-1 = conditions: 255/S1
Source text: as §1

Escherichia coli 255 = system: Escherichia coli 255
Source text: as §1

Escherichia coli GN206 = system: Escherichia coli GN206
Source text: as §1

[7] = system: Escherichia coli NIHJ JC-2; conditions: NIHJJC2
Source text: as §1

[8] = system: Escherichia coli W3630 RGN823; conditions: W3630RGN823
Source text: as §1

[9] = system: Klebsiella pneumoniae GN69
Source text: as §1

[10] = system: Klebsiella pneumoniae PCI602
Source text: as §1

[11] = system: Marganella morganii 1510/S-1
Source text: as §1

Marganella morganii 1510 = system: Marganella morganii 1510
Source text: as §1

[12] = system: Proteus vulgaris GN76/C-1
Source text: as §1

Proteus vulgaris GN76 = system: Proteus vulgaris GN76
Source text: as §1

[13] = system: Pseudomonas aeruginosa GN10362
Source text: as §1

[14] = system: Serratia marcescens GN10857
Source text: as §1

[15] = system: Serratia marcescens No. 1
Source text: as §1

[16] = system: Staphylococcus aureus 209P JC-1
Source text: as §1

[17] = system: Staphylococcus epidermidis ATCC14990
Source text: as §1

SMILES | MIC [1] [µg/mL] | MIC [2] [µg/mL] | MIC [3] [µg/mL] | MIC [4] [µg/mL] | MIC [5] [µg/mL] | MIC [6] [µg/mL] | MIC (Escherichia coli 255/S-1) [µg/mL] | MIC (Escherichia coli 255) [µg/mL] | MIC (Escherichia coli GN206) [µg/mL] | MIC [7] [µg/mL] | MIC [8] [µg/mL] | MIC [9] [µg/mL] | MIC [10] [µg/mL] | MIC [11] [µg/mL] | MIC (Marganella morganii 1510) [µg/mL] | MIC [12] [µg/mL] | MIC (Proteus vulgaris GN76) [µg/mL] | MIC [13] [µg/mL] | MIC [14] [µg/mL] | MIC [15] [µg/mL] | also measured
Nc1nc(/C(=N/O)C(=O)NC2C(=O)N3C(C(=O)O)=C(SC4COCOC4)CS[C@H]23)cs1 (stereo partly shown) [Compound No. 21, 7 - [(Z) -2-(2-aminothiazol-4-yl) -2-hydroxyiminoacetamido]-3-(1,3-dioxan-5-yl)thio-3-cephem-4-carboxylic acid] | 3.13 (≈ 6.42 µM) | > 100 | 0.78 (≈ 1.6 µM) | 50 (≈ 103 µM) | 3.13 (≈ 6.42 µM) | 12.5 (≈ 25.6 µM) | 0.2 (≈ 0.41 µM) | 25 (≈ 51.3 µM) | 6.25 (≈ 12.8 µM) | 0.2 (≈ 0.41 µM) | 3.13 (≈ 6.42 µM) | 0.2 (≈ 0.41 µM) | 0.2 (≈ 0.41 µM) | 0.1 (≈ 0.205 µM) | 12.5 (≈ 25.6 µM) | 12.5 (≈ 25.6 µM) | 0.78 (≈ 1.6 µM) | > 100 | > 100 | 3.13 (≈ 6.42 µM) | MIC [16]: 0.2 µg/mL (≈ 0.41 µM); MIC [17]: 0.2 µg/mL (≈ 0.41 µM)
CO/N=C(\C(=O)NC1C(=O)N2C(C(=O)O)=C(SCC3CCCCO3)CS[C@H]12)c1csc(N)n1 (stereo partly shown) [Compound No. 23, 7-[(Z)-2-(2-aminothiazol-4-yl)-2-methoxyiminoacetamido]-3-(tetrahydropyran-2-yl)methylthio-3-cephem-4-carboxylic acid] | 6.25 (≈ 12.2 µM) | > 100 | 3.13 (≈ 6.09 µM) | 100 (≈ 195 µM) | 25 (≈ 48.7 µM) | > 100 | 3.13 (≈ 6.09 µM) | 50 (≈ 97.3 µM) | 6.25 (≈ 12.2 µM) | 3.13 (≈ 6.09 µM) | 3.13 (≈ 6.09 µM) | 1.56 (≈ 3.04 µM) | 3.13 (≈ 6.09 µM) | 0.78 (≈ 1.52 µM) | 50 (≈ 97.3 µM) | 1.56 (≈ 3.04 µM) | 0.39 (≈ 0.759 µM) | 100 (≈ 195 µM) | 50 (≈ 97.3 µM) | 1.56 (≈ 3.04 µM) | MIC [16]: 3.13 µg/mL (≈ 6.09 µM); MIC [17]: 3.13 µg/mL (≈ 6.09 µM)
Nc1nc(/C(=N/O)C(=O)NC2C(=O)N3C(C(=O)O)=C(SCC4CCCCO4)CS[C@H]23)cs1 (stereo partly shown) [Compound No. 25, 7-[(Z)-2-(2-aminothiazol-4-yl)-2-hydroxyiminoacetamido]-3-(tetrahydropyran-2-yl)methylthio-3-cephem-4-carboxylic acid] | 12.5 (≈ 25 µM) | > 100 | 25 (≈ 50 µM) | 100 (≈ 200 µM) | 12.5 (≈ 25 µM) | 12.5 (≈ 25 µM) | 12.5 (≈ 25 µM) | 100 (≈ 200 µM) | 12.5 (≈ 25 µM) | 12.5 (≈ 25 µM) | 12.5 (≈ 25 µM) | 12.5 (≈ 25 µM) | 12.5 (≈ 25 µM) | 0.78 (≈ 1.56 µM) | 100 (≈ 200 µM) | 12.5 (≈ 25 µM) | 3.13 (≈ 6.27 µM) | > 100 | > 100 | 6.25 (≈ 12.5 µM) | MIC [16]: 1.56 µg/mL (≈ 3.12 µM); MIC [17]: 1.56 µg/mL (≈ 3.12 µM)
CO/N=C(\C(=O)NC1C(=O)N2C(C(=O)O)=C(SCC3CCOC3)CS[C@H]12)c1csc(N)n1 (stereo partly shown) [Compound No. 27, 7-[(Z)-2-(2-aminothiazol-4-yl)-2-methoxyiminoacetamido]-3-(tetrahydrofuran-3-yl)methylthio-3-cephem-4-carboxylic acid] | 3.13 (≈ 6.27 µM) | > 100 | 0.78 (≈ 1.56 µM) | 50 (≈ 100 µM) | > 100 | 100 (≈ 200 µM) | 0.78 (≈ 1.56 µM) | 50 (≈ 100 µM) | 6.25 (≈ 12.5 µM) | 0.78 (≈ 1.56 µM) | 0.78 (≈ 1.56 µM) | 0.2 (≈ 0.4 µM) | 0.39 (≈ 0.781 µM) | 0.39 (≈ 0.781 µM) | 25 (≈ 50 µM) | 6.25 (≈ 12.5 µM) | 0.2 (≈ 0.4 µM) | > 100 | 50 (≈ 100 µM) | 3.13 (≈ 6.27 µM) | MIC [16]: 1.56 µg/mL (≈ 3.12 µM); MIC [17]: 0.78 µg/mL (≈ 1.56 µM)
CO/N=C(\C(=O)NC1C(=O)N2C(C(=O)O)=C(SCC3COCO3)CS[C@H]12)c1csc(N)n1 (stereo partly shown) [Compound No. 29, 7 - [(Z)-2-(2-aminothiazol-4-yl)-2-methoxyiminoacetamido]-3-(1,3-dioxolan-4-yl)methylthio-3-cephem-4-carboxylic acid] | 3.13 (≈ 6.24 µM) | > 100 | 0.39 (≈ 0.778 µM) | 50 (≈ 99.7 µM) | > 100 | > 100 | 0.39 (≈ 0.778 µM) | 50 (≈ 99.7 µM) | 6.25 (≈ 12.5 µM) | 0.39 (≈ 0.778 µM) | 0.78 (≈ 1.56 µM) | 0.2 (≈ 0.399 µM) | 0.2 (≈ 0.399 µM) | 0.39 (≈ 0.778 µM) | 50 (≈ 99.7 µM) | 6.25 (≈ 12.5 µM) | 0.1 (≈ 0.199 µM) | > 100 | 50 (≈ 99.7 µM) | 3.13 (≈ 6.24 µM) | MIC [16]: 1.56 µg/mL (≈ 3.11 µM); MIC [17]: 0.78 µg/mL (≈ 1.56 µM)
CO/N=C(\C(=O)NC1C(=O)N2C(C(=O)O)=C(SCC3CCOCC3)CS[C@H]12)c1csc(N)n1 (stereo partly shown) [Compound No. 31, 7-[(Z)-2-(2-aminothiazol-4-yl)-2-methoxyiminoacetamido]-3-(tetrahydropyran-4-yl)methylthio-3-cephem-4-carboxylic acid] | 3.13 (≈ 6.09 µM) | > 100 | 1.56 (≈ 3.04 µM) | 50 (≈ 97.3 µM) | > 100 | > 100 | 1.56 (≈ 3.04 µM) | 25 (≈ 48.7 µM) | 6.25 (≈ 12.2 µM) | 1.56 (≈ 3.04 µM) | 1.56 (≈ 3.04 µM) | 0.78 (≈ 1.52 µM) | 1.56 (≈ 3.04 µM) | 0.78 (≈ 1.52 µM) | 100 (≈ 195 µM) | 12.5 (≈ 24.3 µM) | 0.78 (≈ 1.52 µM) | 100 (≈ 195 µM) | 25 (≈ 48.7 µM) | 3.13 (≈ 6.09 µM) | MIC [16]: 1.56 µg/mL (≈ 3.04 µM); MIC [17]: 1.56 µg/mL (≈ 3.04 µM)
CO/N=C(\C(=O)NC1C(=O)N2C(C(=O)O)=C(SCC3COCOC3)CS[C@H]12)c1csc(N)n1 (stereo partly shown) [Compound No. 33, 7-[(Z)-2-(2-aminothiazol-4-yl)-2-methoxyiminoacetamido]-3-(1,3-dioxan-5-yl)methylthio-3-cephem-4-carboxylic acid] | 3.13 (≈ 6.07 µM) | > 100 | 0.78 (≈ 1.51 µM) | 50 (≈ 97 µM) | > 100 | > 100 | 0.78 (≈ 1.51 µM) | 50 (≈ 97 µM) | 6.25 (≈ 12.1 µM) | 0.78 (≈ 1.51 µM) | 0.78 (≈ 1.51 µM) | 0.1 (≈ 0.194 µM) | 0.39 (≈ 0.756 µM) | 0.39 (≈ 0.756 µM) | 100 (≈ 194 µM) | 6.25 (≈ 12.1 µM) | 0.2 (≈ 0.388 µM) | > 100 | 50 (≈ 97 µM) | 0.78 (≈ 1.51 µM) | MIC [16]: 0.78 µg/mL (≈ 1.51 µM); MIC [17]: 0.78 µg/mL (≈ 1.51 µM)
